What was measured:
mycoplasma = experiment: Mycoplasma detection using quantitative real-time PCR in cancer cell lines; assay type: cell-based; set-up: dose or concentration left out as unconfirmed; conditions: AZI
Experimental: Total DNA was extracted from 5×10^5 cells from each group by digestion at 70° C. for 10 min in 0.5% Tween-20, 50 mM Tris (pH 8.5), 1 mM EDTA, and 200 mg/L proteinase K, followed by phenol/chloroform/isoamyl alcohol extraction and sodium acetate precipitation. DNA precipitates were washed with 70% ethanol, dried, and dissolved in 20 μL of sterile water. The extracted DNA ([…], 1.2 μg) from the cells was added to […] of the reaction solution, containing PCR buffer (SuperRealPreMix, SYBR Green; Tiangen Biotech, Beijing, China) and primers pairs for mycoplasma detection and reference control (β-actin) with a final concentration of 0.12 μM for each primer, to a total volume of 10 μL. Quantitative real-time PCR (qPCR) was performed as the following profile: 95° C. for 1 min (preincubation), followed by 40 cycles at 95° C. for 10 s (denaturation), 60° C. for 30 s (annealing and elongation). The primers (Table 1) for mycoplasma detection were gifts from Prof. Zhongning Lin (School of Public Health, Xiamen University) including two forward primers for universal mycoplasmal detection, one forward primer to detect Myco M. pirum., one for Myco A. laidlawii. detection and a mix of degenerate primers to work as the reverse primers.

HCC97L cells [1] = experiment: MTT assay, sensitivity to chemotherapeutic drugs with anti-mycoplasma agent or A2PP; assay type: cell-based, human; conditions: non-cytotoxic concentration of MXF or AZI; chemotherapeutic 48 h
Experimental: (§1) Then, HCC97L (3×10^3 well^−1), Hep3B (4×10^3 well^−1), PLC (4×10^3 well^−1), CNE1 (1.75×10^3 well^−1), CNE2 (3.5×10^3 well^−1), HONE1 (2×10^3 well^−1) and SUNE1 (2×10^3 well^−1) were seeded in 96-well plates ([…]) and allowed to attach for 24 h. After that, human liver cancer cell lines were treated with 3 chemotherapeutic drugs separately at different concentrations (as indicated in FIG. 2) in the presence of the anti-mycoplasma antibiotics for 48 h. […] In the P37-ANXA2 interruption experiment, A2PP was dissolved in DMSO and HCC97L cells were pretreated with A2PP (as indicated in FIG. 3) 24 h before GEM or MX treatment. […] (5 mg/ml final concentration; MP Biomedicals, LLC, CA, USA) was added to each well. After 4 h incubation at 37° C., the medium was removed and 100 μL/well DMSO (GBCBIO Technologies, Guangzhou, China) was added. The plates were mixed by a thermomixer for 5 min at RT. Absorbance measures were made in a microplate reader (iMark, Bio-Rad Laboratories, CA, USA) at 570/655 nm.

HCC97L cells [2] = experiment: Cell morphology and MTT cytotoxicity of agent alone; assay type: cell-based, human; set-up: dose or concentration left out as unconfirmed; conditions: AZI
Experimental: as §1

Hep3B = experiment: as above; assay type: cell-based, human; set-up: dose or concentration left out as unconfirmed; conditions: AZI
Experimental: Then, HCC97L (3×10^3 well^−1), Hep3B (4×10^3 well^−1), PLC (4×10^3 well^−1), CNE1 (1.75×10^3 well^−1), CNE2 (3.5×10^3 well^−1), HONE1 (2×10^3 well^−1) and SUNE1 (2×10^3 well^−1) were seeded in 96-well plates (1004/well) and allowed to attach for 24 h. After that, human liver cancer cell lines were treated with 3 chemotherapeutic drugs separately at different concentrations (as indicated in FIG. 2) in the presence of the anti-mycoplasma antibiotics for 48 h. […] 104 of MTT (5 mg/ml final concentration; MP Biomedicals, LLC, CA, USA) was added to each well. After 4 h incubation at 37° C., the medium was removed and 100 μL/well DMSO (GBCBIO Technologies, Guangzhou, China) was added. The plates were mixed by a thermomixer for 5 min at RT. Absorbance measures were made in a microplate reader (iMark, Bio-Rad Laboratories, CA, USA) at 570/655 nm.

PLC/PRF/5 cell line = experiment: MTT assay, sensitivity to chemotherapeutic drugs with anti-mycoplasma antibiotics; assay type: cell-based, human; conditions: non-cytotoxic concentration of MXF or AZI; chemotherapeutic 48 h
Experimental: as §1

Hep3B cells = experiment: as above; assay type: cell-based, human; conditions: non-cytotoxic concentration of MXF or AZI; chemotherapeutic 48 h
Experimental: as §1

CNE2 = assay type: cell-based, human
Experimental: as §1

SUNE1 cells = assay type: cell-based, human
Experimental: as §1

HONE1 cells = assay type: cell-based, human
Experimental: as §1

sensitivity of CNE2 cells to 5-FU (CNE2)	sensitivity of SUNE1 cells to 5-FU (SUNE1 cells)	sensitivity of HONE1 cells to 5-FU (HONE1 cells)	Compound	anti-mycoplasma effect (Real Time PCR) (mycoplasma; HCC97L cells)	anti-mycoplasma effect (Real Time PCR) (mycoplasma; Hep3B cells)	anti-mycoplasma effect (Real Time PCR) (mycoplasma; PLC/PRF/5 cell line)	sensitivity of HCC97L cells to CDDP (HCC97L cells [1])	sensitivity of HCC97L cells to GEM (HCC97L cells [1])	sensitivity of HCC97L cells to MX (HCC97L cells [1])	toxicity to cells (cell morphology and MTT assay) (HCC97L cells [2])	toxicity to cells (cell morphology and MTT assay) (Hep3B)	efficacy of the anti-tumor drugs (CDDP, GEM, MX) in PLC/PRF/5 cell line (PLC/PRF/5 cell line)	sensitivity of Hep3B cells to GEM (Hep3B cells)	sensitivity of Hep3B cells to MX (Hep3B cells)
–	–	–	CC[C@H]1OC(=O)[C@H](C)[C@@H](O[C@H]2C[C@@](C)(OC)[C@@H](O)[C@H](C)O2)[C@H](C)[C@@H](O[C@@H]2O[C@H](C)C[C@H](N(C)C)[C@H]2O)[C@](C)(O)C[C@@H](C)CN(C)[C@H](C)[C@@H](O)[C@]1(C)O [AZI, azithromycin]	removed mycoplasma significantly	removed mycoplasma significantly	mycoplasma remained intact	enhanced	enhanced	enhanced	non-toxic	non-toxic	neither MXF nor AZI improved the efficacy	enhanced	enhanced
enhanced	improved	enhanced	COc1c(N2C[C@@H]3CCCN[C@@H]3C2)c(F)cc2c(=O)c(C(=O)O)cn(C3CC3)c12 [MXF, Moxifloxacin]	–	–	–	–	–	–	–	–	–	–	–
